Results published in the supplement of paper PMC10307832.

Legend:
Assay in all cases: relative viability (nuclei count vs DMSO), 5 days (fraction); higher = more cells survive
Wnt-C59 + Decitabine = compound: CC1=NC=CC(=C1)C2=CC=C(C=C2)CC(=O)NC3=CC=C(C=C3)C4=CN=CC=C4 [Wnt-C59] + Nc1ncn([C@H]2C[C@H](O)[C@@H](CO)O2)c(=O)n1 [Decitabine] (partner 2 µM)
Method in brief: (§1)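 Relative viability is defined as nuclei in treated wells over nuclei in vehicle wells. Duplicate plates were run and medians reported. Lung cancer cell lines in 1536-well plates were dosed by pin tool one day after seeding, with one drug or with a fixed anchor-drug dose plus five library-drug doses (not always all listed) in √10 steps, and nuclei were counted after 5 days.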

Lapatinib + Pictilisib = compound: CS(=O)(=O)CCNCc1ccc(-c2ccc3ncnc(Nc4ccc(OCc5cccc(F)c5)c(Cl)c4)c3c2)o1 [Lapatinib] + CS(=O)(=O)N1CCN(Cc2cc3nc(-c4cccc5[nH]ncc45)nc(N4CCOCC4)c3s2)CC1 [Pictilisib] (partner 1 µM)
Method in brief: as §1

Lapatinib + Olaparib = compound: CS(=O)(=O)CCNCc1ccc(-c2ccc3ncnc(Nc4ccc(OCc5cccc(F)c5)c(Cl)c4)c3c2)o1 [Lapatinib] + O=C(c1cc(Cc2n[nH]c(=O)c3ccccc23)ccc1F)N1CCN(C(=O)C2CC2)CC1 [Olaparib] (partner 8 µM)
Method in brief: as §1

Lapatinib + Tozasertib = compound: CS(=O)(=O)CCNCc1ccc(-c2ccc3ncnc(Nc4ccc(OCc5cccc(F)c5)c(Cl)c4)c3c2)o1 [Lapatinib] + Cc1cc(Nc2cc(N3CCN(C)CC3)nc(Sc3ccc(NC(=O)C4CC4)cc3)n2)n[nH]1 [Tozasertib] (partner 0.1 µM)
Method in brief: as §1

Cell Line	relative viability (Wnt-C59 + Decitabine; first compound 0.001 µM)	relative viability (Wnt-C59 + Decitabine; first compound 0.01 µM)	relative viability (Wnt-C59 + Decitabine; first compound 0.03162 µM)	relative viability (Wnt-C59 + Decitabine; first compound 0.1 µM)	relative viability (Lapatinib + Pictilisib; first compound 0.2 µM)	relative viability (Lapatinib + Pictilisib; first compound 0.6325 µM)	relative viability (Lapatinib + Pictilisib; first compound 2 µM)	relative viability (Lapatinib + Olaparib; first compound 0.02 µM)	relative viability (Lapatinib + Olaparib; first compound 0.06325 µM)	relative viability (Lapatinib + Olaparib; first compound 0.2 µM)	relative viability (Lapatinib + Olaparib; first compound 0.6325 µM)	relative viability (Lapatinib + Olaparib; first compound 2 µM)	relative viability (Lapatinib + Tozasertib; first compound 0.02 µM)	relative viability (Lapatinib + Tozasertib; first compound 0.06325 µM)	relative viability (Lapatinib + Tozasertib; first compound 0.2 µM)	relative viability (Lapatinib + Tozasertib; first compound 0.6325 µM)	relative viability (Lapatinib + Tozasertib; first compound 2 µM)	relative viability (Lapatinib + Pictilisib; first compound 0.02 µM)	relative viability (Lapatinib + Pictilisib; first compound 0.06325 µM)
NCI-H1944	0.501	0.459	0.51	0.43	0.348	0.343	0.318	0.397	0.389	0.381	0.354	0.327	0.245	0.216	0.239	0.205	0.181		
NCI-H661	0.542	0.516	0.576	0.606	0.29	0.307	0.324	0.663	0.72	0.708	0.631	0.545	0.377	0.367	0.358	0.348	0.352	0.397	0.381
201T	0.861	0.824	0.902	0.812	0.675	0.659	0.638	0.85	0.848	0.858	0.833	0.778	0.967	0.716	0.886	0.923	0.792	0.603	0.656
NCI-H2087	0.245	0.28	0.281	0.336	1.03	0.963	0.802	0.56	0.412	0.625	0.516	0.503		0.233	0.267	0.186	0.215	0.472	0.737
BEN	0.667	0.741	0.807	0.782	0.53	0.519	0.505	1.13	1	1.07	1.01	0.837		0.513	0.51	0.515	0.351	0.412	0.577
COR-L23	0.489	0.47	0.493	0.525	0.984	0.92	0.733	0.329	0.358	0.33	0.309	0.275	0.149	0.131	0.152	0.165	0.109	0.681	0.583
ChaGo-K-1	0.56	0.484	0.534	0.534	0.598	0.599	0.32	0.418	0.471	0.478	0.431	0.396	0.218	0.194	0.206	0.2	0.208		0.861
NCI-H1755	0.696	0.728	0.725	0.691	0.433	0.437	0.371	0.855	0.837	0.885	0.882	0.815	0.549	0.583	0.559	0.483	0.486	0.244	0.363
EMC-BAC-2	0.932	0.914	0.89	0.89	0.504	0.581	0.493		0.447	0.56	0.537	0.528	0.309	0.344	0.309	0.319	0.299	0.355	0.433
